{"source": "patent US12310380B2", "about": "“Method for extending shelf-life of agricultural produce” (National Institute of Plant Genome Research, priority 2019, dated 2025)", "system": "Nanjungud rasbale banana", "experiment": "Ripening of banana: NO donors versus hypoxia-induced NO", "format": "in vivo", "conditions": "SNAP 100 μM, chitosan 1%", "procedure": "Effects of using hypoxia-induced NO on fruit ripening were tested against the available NO donors such as SNP (Sodium nitroprusside), SNAP (S-Nitroso-N-acetyl-dl-penicillamine), chitosan on Nanjungud rasbale banana. Physiological concentrations of NO donors were used and the concentration for SNP used was 1 mM, SNAP was used in a concentration of 100 μM, chitosan was used in a concentration of 1%. Out of all the treatments, hypoxia-induced NO yielded better results where a significant delay of ripening was observed (Table-1). SNP and chitosan were effective up to 2 days but later they were ineffective on delaying ripening. Even after 3 days of treatment only one fruit ripened in the presence of formula in comparison to other treatments where 60% of fruits were ripened (FIG. 10). […] It was observed that the delay in ripening of bananas by the method of the present disclosure was 7 days as compared to the bananas which were not treated by the method of the present disclosure.", "data": [{"compound": "CC(=O)NC(C(=O)O)C(C)(C)SN=O", "note": "(racemic) [SNAP, S-Nitroso-N-acetyl-dl-penicillamine]", "values": [{"measurement": "Number of fruits ripened", "setting": "Day 0, SNP 1 mM", "value": 0}, {"measurement": "Number of fruits ripened", "setting": "Day 1, SNP 1 mM", "value": 0}, {"measurement": "Number of fruits ripened", "setting": "Day 2, SNP 1 mM", "value": 2}, {"measurement": "Number of fruits ripened", "setting": "Day 3, SNP 1 mM", "value": 4}]}]}
